Like-named read-outs stand apart in the source and are kept apart here.
What was measured:
[1] = 0 min
Procedure: (§1) Solutions containing respectively 10 percent carbonate and ten percent pineapple ketone in toluene are stirred in loosely capped vials at ambient temperature. Samples are taken periodically and the concentration of carbonate or ketone remaining determined by GLC (6'×1/8", 15% Carbowax-20M on 80/100 Chromasorb W, Helium=28 cc/min, 100°-210° at 8°/min). The experiment is repeated using ethanol as solvent.

[2] = physchem; conditions: toluene
Procedure: as §1

| % Remaining (0 min) [%] | % Remaining [1] [%] | remaining at 21 h [2] [%] | remaining at 46 h [2] [%] | remaining at 69 h [2] [%] | remaining at 149 h [2] [%] | remaining at 173 h [2] [%] | % Remaining (toluene, 15 h) [%] | % Remaining (toluene, 41 h) [%] | % Remaining (toluene, 116 h) [%] | % Remaining (toluene, 138 h) [%] | remaining at 48 h [2] [%] | remaining at 72 h [2] [%] | remaining at 172 h [2] [%] | Compound |
| --- | --- | --- | --- | --- | --- | --- | --- | --- | --- | --- | --- | --- | --- | --- |
| 100 | 100 | 100 | 100 | 100 | 100 | 100 |  |  |  |  |  |  |  | CCOC(=O)OC1=C(C)OC(C)C1=O (stereo not drawn) [Example 1, ETHYL 2,5-DIMETHYL-3-OXO-4(2H)-FURYL CARBONATE] |
| 100 | 100 | 100 |  |  | 8 |  | 24 | 18 | 6 | 4 | 58 | 30 | 9 | CC1=C(O)C(=O)C(C)O1 (stereo not drawn) [Pineapple ketone, 2,5-dimethyl-4-hydroxy-3(2H)-furanone] |
